The values that follow come from US20250152580A1, “METHODS FOR TREATING IMMUNE DISEASES” (Ascentage Pharma (Suzhou) co., Ltd., priority 2022, published 2025).

Each structure is given as a SMILES string. “Also recorded” adds a separate entry of the source.

One experiment relates to OXA induced DTH model. The experiment is described as follows: OXA induced delayed type hypersensitivity (DTH) model in Balb/c mice. Format: in vivo. An excerpt: A delayed-type hypersensitivity (DTH) reaction is an expression of cell-mediated immunity and plays a major role in the pathology and chronicity of many inflammatory disorders. Delayed-type hypersensitivity (DTH) reactions can be induced by allergens, including oxazolone.
Female Balb/c mice (6-8 weeks old) were obtained from Shanghai Jihui Experiment Animal Feeding Co. Ltd. Animals were housed and handled in a temperature-controlled environment with a 12-h light/12-h dark cycle. A total of 48 mice were assigned to 6 groups by randomization based on body weight.
To induce DTH, all right ears of mice except the G1 sham control group were applied with oxazolone (OXA). Briefly, skin inflammation was induced by topical administration with 100 μL of 1.5% OXA dissolved in acetone/olive oil on day 1 and repeated 20 μL of 1% OXA on day 6. G1 sham control group was treated same volume of vehicles. Therapeutic group of 100 mg/kg Cpd. 4 (po, 0 h/6 h after challenge on day 6) or 0.05 mg/ear dexamethasone (topical, 1 h/6 h after challenge on day 6) were applied to the mice. […]
Ear thickness were measured with a micrometer before challenge on day 6 and 24 h after oxazolone challenge on Day 7 and reported as the mean change in ear thickness. […]

The test system of a further experiment is OVA induced asthma model. Put plainly: OVA (ovalbumin) induced asthma model in Balb/cA mice. The conditions noted are these: for pathological score in lung tissues (H&E): vehicle 4.08±0.23. Format: in vivo. The text has this:
Ovalbumin (OVA)-sensitized and challenged BALB/c mice are widely used as an asthma model and are characterized by high levels of serum IgE, airway inflammation, epithelial hypertrophy, goblet cell hyperplasia, and AHR, which are similar to the features observed in human allergic asthma.
Female Balb/cA mice (8 weeks old) were obtained from Shanghai Jihui Laboratory Animal Co. Ltd. Animals were housed and handled in a temperature-controlled environment with a 12-h light/12-h dark cycle. A total of 66 mice were assigned to 6 groups by randomization based on body weight.
Mice in Group 2 are intraperitoneally immunized with OVA (25 μg) emulsified in Imject alum (2.0 mg of Al[OH]3) on day 1. During this sensitization phase, the mice produce anti-OVA IgE antibodies, which bind IgE receptors on mast cells. After this sensitization, the mice are intratracheally challenged with OVA from day 8 today 14, resulting in OVA cross-linked IgE on mast cells and leading to degranulating mast cells. Mice then develop clinical features of asthma. The mice in the Group 1 normal control group were sensitized and challenged with […] (without OVA).
Mice in Group 1 and Group 2 were treated with vehicle for 7 days (po, qd, from day 8 to day 14). Mice in Group 3 were treated with 50 mg/kg Cpd. X for 8 days (iv, biw, day 1 and day 4). Mice in Group 4 were treated with 30 mg/kg Cpd. 4 for 7 days (po, qd, from day 8 to day 14). Mice in Group 5 were treated with 100 mg/kg Cpd. 4 for 7 days (po, qd, from day 8 to day 14). 3 mg/kg dexamethasone was used as positive control which was orally administered to mice in Group 6 for 7 days (qd, from day 8 to day 14). The protocols and procedures involving the care and use of animals were approved by the Institutional Animal Care and Use Committee (IACUC) at KCI (Suzhou, China).
Airway responsiveness was determined invasively based on lung resistance.
After challenge with aerosolized methacholine. Briefly, mice were challenged with methacholine aerosol in increasing concentrations (0, 6.25, 12.5, and 25 mg/mL in saline) on day 13 by using the noninvasive pulmonary function instrument. Data on lung resistance were continuously collected, and mean values were selected to express changes in airway function and regarded as one form of inflammation expression. Data are presented as the airway stenosis index (penh).
Twenty-four hours after the final OVA challenge (on day 15), mice were killed, and BAL cells were collected by means of slow injection of ice-cold PBS into the trachea, which was repeated 3 times. Numbers of cells in BAL fluid were counted with a chamber. Number of eosinophils in a total of 100 cells was counted under a microscope. Results are expressed as percentage of eosinophils of BAL fluid.
Twenty-four hours after the final OVA challenge (on day 15), mice were killed, and the serum was collected. The OVA-specific IgE levels were measured with the method of enzyme linked immunosorbent assay (ELISA) according to manufacturer protocol.
Twenty-four hours after the final OVA challenge (on day 15), mice were killed, and the lung tissue samples were collected and fixed in 4% paraformaldehyde. Then, they were embedded in paraffin and cut into […] sections for histopathological analysis. Lung sections were then stained with hematoxylin and eosin (H&E) to calculate the inflammatory changes. The histopathological score was evaluated microscopically in a blinded manner. Five arbitrarily selected fields of each mouse were photographed with an optical microscope and the images were determined and analyzed in detail. […]

The mark [1] stands for this setting: day 15, Cpd. 4 30 and 100 mg/kg po qd, Cpd. X 50 mg/kg iv biw, dexamethasone 3 mg/kg po qd, compared with Vehicle.

Consider `O=C(NS(=O)(=O)c1ccc(NC[C@H]2COCCO2)c([N+](=O)[O-])c1)c1ccc(N2CCN(CC3=C(c4ccc(Cl)cc4)CC4(CCC4)CC3)CC2)cc1Oc1cnc2[nH]ccc2c1` [Cpd. 4, (S)-N-((4-(((1,4-dioxan-2-yl)methyl)amino)-3-nitrophenyl)sulfonyl)-2-((1H-pyrrolo[2,3-b]pyridin-5-yl)oxy)-4-(4-((6-(4-chlorophenyl)spiro[3.5]non-6-en-7-yl)methyl)piperazin-1-yl)benzamide], for which the “increase of ear thickness (day 7 − day 6)” value in the experiment with OXA induced DTH model (100 mg/kg po 0 h/6 h after challenge on day 6, vehicle 0.24±0.01 mm) is recorded as 0.22±0.03 mm. The “increase of ear thickness (in words)” value with OXA induced DTH model (Cpd. 4 100 mg/kg po, dexamethasone 0.05 mg/ear topical 1 h/6 h after challenge on day 6) is listed as “moderately reduced”. Also, in the experiment on OVA induced asthma model (30 mg/kg po qd day 8-14, day 15), the “pathological score in lung tissues (H&E)” value is 2.64±0.08. Further, the “pathological score in lung tissues (H&E)” value with OVA induced asthma model (100 mg/kg po qd day 8-14, day 15) amounted to 2.66±0.17. Further, the “pathological score in lung tissues (in words)” value in the experiment with OVA induced asthma model (Cpd. 4 and Cpd. X, compared with Vehicle) is reported as “significantly ameliorated”. In addition, in the experiment with OVA induced asthma model (setting [1]), the “percentage of eosinophils in BALF” value was “downregulated markedly; also recorded: significantly downregulated” and the “serum OVA-specific IgE (ELISA)” value is “significantly reduced; also recorded: significantly decreased”. Further, in the experiment with OVA induced asthma model (methacholine challenge day 13, Cpd. 4 30 and 100 mg/kg po qd day 8-14, Cpd. X 50 mg/kg iv biw, dexamethasone 3 mg/kg po qd, compared with Vehicle), the “airway stenosis index (penh), airway hyper-responsiveness (AHR)” value is “significant inhibitory activity; also recorded: significantly reduced”.
